Source: ChEMBL document CHEMBL6153030, “Design, synthesis, and biological evaluation of novel pleuromutilin derivatives with methicillin-resistant Staphylococcus aureus -targeting phenol linker groups” (Eur J Med Chem, 2025)
In brackets after ≈: the same amount, converted by molar mass. Activity calls are given as the source filed them. No cut-off for these calls is given here.

Key:
Staphylococcus aureus [1] = assay: In vivo antibacterial activity against methicillin-resistant Staphylococcus aureus ATCC43300 infected in Kunming mouse assessed as log reduction of bacterial load in lungs at 40 mg/kg, ip administered at 1 hr post-infection and measured within 48 hrs; format: functional
Staphylococcus aureus [2] = assay: Bactericidal activity against methicillin-resistant Staphylococcus aureus ATCC 43300 assessed as bacterial killing at 6XMIC incubated for 96 hrs in broth followed by culturing on agar plate for 12 hrs by time-kill kinetics analysis; format: functional; conditions: time 108 hrs
Streptococcus pneumoniae = assay: Antibacterial activity against Streptococcus pneumoniae ATCC 49619 assessed as inhibition of bacterial growth incubated for 96 hrs by broth microdilution method; format: functional
Staphylococcus aureus [3] = assay: In vivo antibacterial activity against methicillin-resistant Staphylococcus aureus ATCC43300 infected in Kunming mouse assessed as decrease in lung lesions by measuring reduced congestion, hemorrhage and inflammatory cell infiltration at 40 mg/kg, ip administered at 1 hr post-infection; format: functional, organism-based
HEK293 = assay: Cytotoxicity against HEK293 cells assessed as reduction in cell survival upto 120 ug/ml incubated for 6 hrs by CCK8 assay; format: toxicity, cell-based; conditions: human, hek293, 6 h, dose < 120 µg/ml
Escherichia coli = assay: Antibacterial activity against Escherichia coli ATCC 25922 assessed as inhibition of bacterial growth incubated for 96 hrs by broth microdilution method; format: functional
Staphylococcus aureus [4] = assay: Antibacterial activity against methicillin-resistant Staphylococcus aureus ATCC43300 assessed as inhibition of bacterial growth incubated for 96 hrs by broth microdilution method; format: functional
Staphylococcus aureus [5] = assay: Bactericidal activity against methicillin-resistant Staphylococcus aureus ATCC43300 assessed as bacterial killing at 3XMIC incubated for 96 hrs in broth followed by culturing on agar plate for 4 hrs by time-kill kinetics analysis; format: functional; conditions: time 100 hrs
HepG2 = assay: Cytotoxicity against human HepG2 cells assessed as reduction in cell survival at 250 ug/ml incubated for 6 hrs by CCK8 assay; format: toxicity, cell-based; conditions: hepg2, 6 h, dose 250 µg/ml
[6] = Toxicity against zebrafish embryo assessed as teratogenic effect at 128 ug/ml measured after 96 hrs by microscopic analysis; parameters: species or system Danio rerio; conditions: in vivo, dose 128 µg/ml
[7] = target: T1, 70S ribosome (Staphylococcus aureus) (UniProt Q2FW31+P0A0H0+Q2FW30+Q2FW19+Q2FYU5+Q2G2Q1+Q2FZ45+Q2FW15+Q2G111+Q2FW10+Q2FXY6+Q2FXZ7+Q2FZ25+Q2FW12+Q2FXK6+Q2FW23+Q2G113+P48940+Q2FW20+Q2FW39+Q2FYF9+Q2G0N9+P0A0F4+Q2FW38+Q2FW16+P0A0F8+Q2FW13+Q2FW33+Q2FW22+Q2FZ42+Q2G0P0+Q2FXQ1+Q2FXS8+Q2FW11+Q2FW08+Q2FW17+Q2FXT0+Q2FZ60+Q2FW14+P60430+P0A0G2+Q2FWD8+Q2FZF1+Q2FYU6+Q2FY22+Q2FUQ0+Q2FXQ0+Q2FW29+Q2FW06+Q2FW07+Q2FW18+Q2FW21+P48860+Q2G2T3); assay: Inhibition of ribosomal peptidyl transferase centre in methicillin-resistant Staphylococcus aureus ATCC43300 assessed as bacterial cell rupture at 4XMIC by scanning electron microscopy; format: functional
Staphylococcus aureus [8] = assay: In vivo antibacterial activity against methicillin-resistant Staphylococcus aureus ATCC43300 infected in Kunming mouse assessed as increase in animal survival rate administered ip at 1 hr post-infection; format: functional; conditions: ATCC43300, 1 h
Staphylococcus aureus [9] = assay: In vivo antibacterial activity against methicillin-resistant Staphylococcus aureus ATCC43300 infected in Kunming mouse assessed as decrease in bacterial load in lungs at 20 to 40 mg/kg, ip administered at 1 hr post-infection; format: functional, organism-based; conditions: dose 20-40 mg/kg
Staphylococcus aureus [10] = assay: Antibacterial activity against Staphylococcus aureus ATCC 29213 assessed as inhibition of bacterial growth incubated for 96 hrs by broth microdilution method; format: functional
[11] = Toxicity against Zebrafish assessed as reduction of survival of embryos measured after 96 hrs; parameters: species or system Danio rerio; conditions: in vivo
[12] = tested on: Staphylococcus epidermidis; assay: Antibacterial activity against methicillin-resistant Staphylococcus epidermidis ATCC 51625 assessed as inhibition of bacterial growth incubated for 96 hrs by broth microdilution method; format: functional
[13] = target: T1, 70S ribosome (Staphylococcus aureus); assay: Inhibition of ribosomal peptidyl transferase centre in methicillin-resistant Staphylococcus aureus ATCC43300 assessed as inhibition of bacterial cell division at 4XMIC by scanning electron microscopy; format: functional
Staphylococcus aureus [14] = assay: Bactericidal activity against methicillin-resistant Staphylococcus aureus ATCC 43300 assessed as log reduction of bacterial colonies at 3XMIC incubated for 96 hrs in broth followed by culturing on agar plate for 4 hrs by time-kill kinetics analysis; format: functional; conditions: time 100 hrs
[15] = Toxicity against rabbit red blood cells assessed as hemolysis rate at 100 ug/ml by absorbance based analysis; format: cell-based, Oryctolagus cuniculus, Erythrocyte; conditions: at 100 µg/mL, read-out: Activity
Staphylococcus aureus [16] = assay: Antibacterial activity against methicillin-resistant Staphylococcus aureus ATCC43300 assessed as inhibition of bacterial growth measured after 17 to 18 days; format: functional; conditions: time 17-18 day

C=C[C@]1(C)C[C@@H](OC(=O)CSc2ccccc2OCC(=O)N2CCS(=O)(=O)CC2)[C@]2(C)[C@H](C)CC[C@]3(CCC(=O)[C@H]32)[C@@H](C)[C@@H]1O
Activity (Staphylococcus aureus [1]): 3 log10CFU/ml
Activity (Staphylococcus aureus [2]): 99.99%
MIC (Streptococcus pneumoniae): 0.125 µg/mL (≈ 0.189 µM)
Activity (Staphylococcus aureus [3]): Active
Activity (HEK293): Toxic
MIC (Escherichia coli): > 64 µg/mL
MIC (Staphylococcus aureus [4]): < 0.031 µg/mL
Activity (Staphylococcus aureus [5]): 99.9%
Activity (HepG2): Toxic
Activity [6]: Non-toxic
inhibition [7]: Active
ED50 (Staphylococcus aureus [8]): 6.48 mg/kg
Activity (Staphylococcus aureus [9]): Dose-dependent-effect
MIC (Staphylococcus aureus [10]): < 0.031 µg/mL
LC50 at 96 h [11]: 165 µg/mL (≈ 249 µM)
MIC [12]: < 0.031 µg/mL
inhibition [13]: Active
Activity (Staphylococcus aureus [14]): -3.154 log10CFU/ml
hemolysis at 100 ug/ml [15]: < 15%
MIC (Staphylococcus aureus [16]): 8 µg/mL (≈ 12.1 µM)
